20 compounds from patent publication US12577206B2 (BRISTOL-MYERS SQUIBB COMPANY, priority 2020, dated 2026) can be followed below.

The target of one assay is T1, human FPR2 (Homo sapiens, UniProt P25090).
T1 sequence (P25090 1-351): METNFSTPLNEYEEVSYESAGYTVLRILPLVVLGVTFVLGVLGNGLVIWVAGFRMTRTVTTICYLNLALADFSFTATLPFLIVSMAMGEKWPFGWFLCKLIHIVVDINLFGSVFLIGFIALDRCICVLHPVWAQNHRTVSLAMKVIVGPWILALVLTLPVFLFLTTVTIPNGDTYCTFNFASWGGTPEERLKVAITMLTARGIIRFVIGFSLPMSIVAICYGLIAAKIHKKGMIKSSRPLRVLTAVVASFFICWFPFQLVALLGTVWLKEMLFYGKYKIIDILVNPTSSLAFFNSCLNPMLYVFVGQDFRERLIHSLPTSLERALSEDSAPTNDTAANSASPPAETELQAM
Kind of assay: FPR2 cyclic adenosine monophosphate (cAMP) assay. Format: cell-based. The following applies: CHO cells overexpressing human FPR2; forskolin 5 μM; inhibition of cAMP production; HTRF; read-out: hFPR2 cAMP2 EC50. The essentials:
(§1)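 Inhibition of forskolin-stimulated cAMP (final forskolin 5 μM for FPR2, 10 μM for FPR1; IBMX 200 μM) was measured by HTRF in recombinant CHO cells after 30 min at room temperature.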
(In general: cAMP levels reflect the balance of adenylyl cyclase and phosphodiesterase activity.)

A further assay has as its target T2, human FPR1 (Homo sapiens, UniProt P21462).
T2 sequence (P21462 1-350): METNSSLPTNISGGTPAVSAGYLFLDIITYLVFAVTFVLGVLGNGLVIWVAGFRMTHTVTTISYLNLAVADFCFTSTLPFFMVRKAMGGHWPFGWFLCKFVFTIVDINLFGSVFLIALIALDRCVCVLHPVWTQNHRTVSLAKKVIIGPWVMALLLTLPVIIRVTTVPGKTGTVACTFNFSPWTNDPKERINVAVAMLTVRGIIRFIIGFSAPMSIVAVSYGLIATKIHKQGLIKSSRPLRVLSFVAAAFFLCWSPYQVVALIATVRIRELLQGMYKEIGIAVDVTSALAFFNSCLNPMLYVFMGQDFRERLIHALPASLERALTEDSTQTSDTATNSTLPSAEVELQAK
Kind of assay: FPR1 cyclic adenosine monophosphate (cAMP) assay. Format: cell-based. The following applies: CHO cells overexpressing human FPR1; forskolin 10 μM; inhibition of cAMP production; HTRF; read-out: hFPR1 cAMP2 EC50. The essentials:
as §1

On to `COc1cc(OCCS(C)(=O)=O)nc(-n2c(=O)c(NC(=O)c3ccc(OC(F)F)cc3)c(-c3c(F)cc(OC)cc3F)n2C)c1` [Example 335, N-(5-(2,6-Difluoro-4-methoxyphenyl)-2-(4-methoxy-6-(2-(methylsulfonyl)ethoxy)pyridin-2-yl)-1-methyl-3-oxo-2,3-dihydro-1H-pyrazol-4-yl)-4-(difluoromethoxy)benzamide], for which the EC50 on human FPR2 was 3 nM; at human FPR1, more than 10000 nM.

For `COc1cc(F)c(-c2c(NC(=O)c3ccc(OC(F)F)cc3)c(=O)n(-c3nc(Cl)ccc3N3CC(C)(O)C3)n2C)c(F)c1` [Example 203, N-{2-[6-chloro-3-(3-hydroxy-3-methylazetidin-1-yl)pyridin-2-yl]-5-(2,6-difluoro-4-methoxyphenyl)-1-methyl-3-oxo-2,3-dihydro-1H-pyrazol-4-yl}-4-(difluoromethoxy)benzamide], the concentration giving a half-maximal response (EC50) on human FPR2 was 5 nM; at human FPR1 it was more than 10000 nM.

On to `COc1cc(F)c(-c2c(NC(=O)c3ccc(OC(F)F)cc3)c(=O)n(-c3nc(C(F)(F)F)ccc3Br)n2C)c(F)c1` [Example 159, N-{2-[3-bromo-6-(trifluoromethyl)pyridin-2-yl]-5-(2,6-difluoro-4-methoxyphenyl)-1-methyl-3-oxo-2,3-dihydro-1H-pyrazol-4-yl}-4-(difluoromethoxy)benzamide], for which the EC50 is 7 nM on human FPR2 and more than 10000 nM on human FPR1.

Turning to `CNc1ccc(C(F)(F)F)c(-n2c(=O)c(NC(=O)c3ccc(OC(F)F)cc3)c(-c3c(O)cc(OC)cc3F)n2C)n1` [Example 233, 4-(difluoromethoxy)-N-[5-(2-fluoro-6-hydroxy-4-methoxyphenyl)-1-methyl-2-[6-(methylamino)-3-(trifluoromethyl)pyridin-2-yl]-3-oxo-2,3-dihydro-1H-pyrazol-4-yl]benzamide], the figures for the EC50 on human FPR2 and on human FPR1 were 8 nM and more than 10000 nM, respectively.

As for `COc1cc(F)c(-c2c(NC(=O)c3ccc(OC(F)F)cc3)c(=O)n(-c3cc(C)cc(OC4CCOC4)n3)n2C)c(F)c1` (stereo not shown) [Example 360, N-(5-(2,6-Difluoro-4-methoxyphenyl)-1-methyl-2-(4-methyl-6-((tetrahydrofuran-3-yl)oxy)pyridin-2-yl)-3-oxo-2,3-dihydro-1H-pyrazol-4-yl)-4-(difluoromethoxy)benzamide], the EC50 on human FPR2 is 4 nM; at human FPR1, more than 10000 nM.

For `COc1cc(OC(CO)C(F)(F)F)nc(-n2c(=O)c(NC(=O)c3ccc(OC(F)F)cc3)c(-c3c(F)cc(OC)cc3F)n2C)c1` (stereo not shown) [Example 390, N-(5-(2,6-Difluoro-4-methoxyphenyl)-2-(4-methoxy-6-((1,1,1-trifluoro-3-hydroxypropan-2-yl)oxy)pyridin-2-yl)-1-methyl-3-oxo-2,3-dihydro-1H-pyrazol-4-yl)-4-(difluoromethoxy)benzamide], the EC50 at human FPR2 was determined as 10 nM; on human FPR1, 2200 nM.

On to `COc1cc(F)c(-c2c(NC(=O)c3ccc(OC(F)F)cc3)c(=O)n(-c3ccc(C#N)cn3)n2C)c(F)c1` [Example 54, N-[2-(5-cyanopyridin-2-yl)-5-(2,6-difluoro-4-methoxyphenyl)-1-methyl-3-oxo-2,3-dihydro-1H-pyrazol-4-yl]-4-(difluoromethoxy)benzamide], for which the results for the EC50 on human FPR2 and at human FPR1 were 19 nM and 3300 nM, respectively.

Regarding `COCC(CO)Oc1cc(OC)cc(-n2c(=O)c(NC(=O)c3ccc(OC(F)F)cc3)c(-c3c(F)cc(OC)cc3F)n2C)n1` (stereo not shown) [Example 382, N-(5-(2,6-Difluoro-4-methoxyphenyl)-2-(6-((1-hydroxy-3-methoxypropan-2-yl)oxy)-4-methoxypyridin-2-yl)-1-methyl-3-oxo-2,3-dihydro-1H-pyrazol-4-yl)-4-(difluoromethoxy)benzamide], the results for the EC50 at human FPR2 and at human FPR1 were 8 nM and more than 10000 nM, respectively.

For `Cn1c(-c2c(F)cc(Cl)cc2F)c(NC(=O)c2ccc(OC(F)F)cc2)c(=O)n1-c1cccc(C(C)(C)O)n1` [Example 407], the 50% effective concentration (EC50) on human FPR2 was 23 nM; at human FPR1 it was more than 10000 nM.

Consider `COc1cc(F)c(-c2c(NC(=O)c3ccc(OC(F)F)cc3)c(=O)n(-c3cc(F)cc(OC(C)C)c3)n2C)c(F)c1` [Example 125, N-[5-(2,6-difluoro-4-methoxyphenyl)-2-[3-fluoro-5-(propan-2-yloxy)phenyl]-1-methyl-3-oxo-2,3-dihydro-1H-pyrazol-4-yl]-4-(difluoromethoxy)benzamide], for which the EC50 on human FPR2 stood at 4 nM; at human FPR1, 2000 nM.

As to `COC(=O)c1cncc(-n2c(=O)c(NC(=O)c3ccc(OC(F)F)cc3)c(-c3c(F)cc(OC)cc3F)n2C)c1` [Example 128, methyl 5-[3-(2,6-difluoro-4-methoxyphenyl)-4-[4-(difluoromethoxy)benzamido]-2-methyl-5-oxo-2,3-dihydro-1H-pyrazol-1-yl]pyridine-3-carboxylate], the concentration giving a half-maximal response (EC50) worked out at 7 nM on human FPR2 and 19 nM at human FPR1.

`COc1cc(F)c(-c2c(NC(=O)c3ccc(OC(F)F)cc3)c(=O)n(-c3nc(N4CCCC4C(F)(F)F)ccc3C(F)(F)F)n2C)c(F)c1` (stereo not shown) [Example 302, N-[5-(2,6-difluoro-4-methoxyphenyl)-1-methyl-3-oxo-2-[3-(trifluoromethyl)-6-[2-(trifluoromethyl)pyrrolidin-1-yl]pyridin-2-yl]-2,3-dihydro-1H-pyrazol-4-yl]-4-(difluoromethoxy)benzamide]: the EC50 at human FPR2 was 1 nM; at human FPR1 it was 2200 nM.

Turning to `COc1cc(F)c(-c2c(NC(=O)c3ccc(OC(F)F)cc3)c(=O)n(-c3cc(C4CCNCC4)cc(C)n3)n2C)c(F)c1` [Example 323, N-(5-(2,6-Difluoro-4-methoxyphenyl)-1-methyl-2-(6-methyl-4-(piperidin-4-yl)pyridin-2-yl)-3-oxo-2,3-dihydro-1H-pyrazol-4-yl)-4-(difluoromethoxy)benzamide], the EC50 on human FPR2 was 14 nM; on human FPR1 it was more than 10000 nM.

In the case of `COc1cc(C)cc(-n2c(=O)c(NC(=O)c3ccc(OC(F)F)cc3)c(-c3c(F)cc(OC)cc3F)n2C)c1` [Example 121, N-[5-(2,6-difluoro-4-methoxyphenyl)-2-(3-methoxy-5-methylphenyl)-1-methyl-3-oxo-2,3-dihydro-1H-pyrazol-4-yl]-4-(difluoromethoxy)benzamide], the EC50 at human FPR2 was 6 nM; at human FPR1, more than 10000 nM.

Take `COc1cc(F)c(-c2c(NC(=O)c3ccc(OC(F)F)cc3)c(=O)n(-c3nc(N[C@H](C)CO)ccc3C(F)(F)F)n2C)c(F)c1` [Example 236, N-[5-(2,6-difluoro-4-methoxyphenyl)-2-(6-{[(2R)-1-hydroxypropan-2-yl]amino}-3-(trifluoromethyl)pyridin-2-yl)-1-methyl-3-oxo-2,3-dihydro-1H-pyrazol-4-yl]-4-(difluoromethoxy)benzamide]: the EC50 at human FPR2 was 9 nM; at human FPR1 it was more than 10000 nM.

In the case of `COc1cc(F)c(-c2c(NC(=O)c3ccc(OC(F)F)cc3)c(=O)n(-c3cc(C#N)cc(C(F)(F)F)n3)n2C)c(F)c1` [Example 341, N-(2-(4-Cyano-6-(trifluoromethyl)pyridin-2-yl)-5-(2,6-difluoro-4-methoxyphenyl)-1-methyl-3-oxo-2,3-dihydro-1H-pyrazol-4-yl)-4-(difluoromethoxy)benzamide], the EC50 turned out to be 10 nM at human FPR2 and 2600 nM at human FPR1.

Consider `COc1cc(F)c(-c2c(NC(=O)c3ccc(OC(F)F)cc3)c(=O)n(-c3cc(Cl)cc(C(F)(F)F)c3)n2C)c(F)c1` [Example 131, N-{2-[3-chloro-5-(trifluoromethyl)phenyl]-5-(2,6-difluoro-4-methoxyphenyl)-1-methyl-3-oxo-2,3-dihydro-1H-pyrazol-4-yl}-4-(difluoromethoxy)benzamide], for which the half-maximal effective concentration (EC50) is 11 nM at human FPR2 and more than 10000 nM on human FPR1.

On to `COc1cc(F)c(-c2c(NC(=O)c3ccc(OC(F)F)cc3)c(=O)n(-c3nc(C(C)(C)F)ccc3C#N)n2C)c(F)c1` [Example 194, N-{2-[3-cyano-6-(2-fluoropropan-2-yl)pyridin-2-yl]-5-(2,6-difluoro-4-methoxyphenyl)-1-methyl-3-oxo-2,3-dihydro-1H-pyrazol-4-yl}-4-(difluoromethoxy)benzamide], for which the 50% effective concentration (EC50) is 5 nM on human FPR2 and more than 10000 nM at human FPR1.

On to `COc1cc(F)c(-c2c(NC(=O)c3ccc(OC(F)F)cc3)c(=O)n(-c3nc(N[C@H]4CCOC4)ccc3C(F)(F)F)n2C)c(F)c1` [Example 255], for which the EC50 on human FPR2 is 2 nM; on human FPR1, more than 10000 nM.

Take `COc1ccc(-c2c(NC(=O)c3ccc(OC(F)F)cc3)c(=O)n(-c3ncccc3Cl)n2C)cc1F` [Example 294, N-[2-(3-chloropyridin-2-yl)-5-(3-fluoro-4-methoxyphenyl)-1-methyl-3-oxo-2,3-dihydro-1H-pyrazol-4-yl]-4-(difluoromethoxy)benzamide]: the EC50 was 32 nM at human FPR2 and 1400 nM on human FPR1.

Broadly, the EC50 is the concentration at which the effect is half-maximal.
